# Data: publication PMC9323733, “Efficacy of Vafidemstat in Experimental Autoimmune Encephalomyelitis Highlights the KDM1A/RCOR1/HDAC Epigenetic Axis in Multiple Sclerosis” (Pharmaceutics, 2022)
# “Also recorded” adds a separate entry of the source.
# Columns and labels:
# brain of EAE mice = assay: Microarray, brain of EAE mice, effector phase (E), 24 h after treatment; ORY-2001 0.5 mg/kg, FTY720 1.0 mg/kg; format: in vivo, mouse
# Procedure: (§1) We evaluated differences in gene expression induced by the treatment using real-time PCR and by microarray hybridization analysis. First, total RNA was isolated from brain and spinal cord segments from EAE mice using Qiazol™ and the RNeasy MiniKit™ extraction kit (Qiagen). Evaluation of RNA quality was performed with the Agilent 2100 bioanalyzer and NanoDrop™ ND-1000 (Thermo Scientific, Dartford, Kent, UK). After DNAse I treatment, RNA (1 µg/sample) was reverse transcribed using RevertAid First strand cDNA Synthesis kit (Fermentas) and random hexamer primers. For evaluating the expression of the inflammatory markers TNFα, IL-1β, IP10, IL-4, and CCL5, real time PCR was performed by using iQ SYBR Green Supermix (Bio-Rad, Feldkirchen, Germany) according to manufacturer’s instructions in a BIORAD CFX96 thermal cycler. Primer sequences and PCR conditions are indicated in Supplementary Materials Table S3. […]
# (§2) For the gene expression studies, data from microarray assays were normalized by modified nonlinear Q-splines normalization method and Log2(Sample/Vehicle) values calculated without background correction (which permits robust selection of differentially expressed genes yet may lead to sub-estimation of the magnitude of change for genes expressed near the detection limit). Differential expression was assessed with the proprietary Polyphemus software using robust statistics on the average technical replicates (3 replicates/gene oligo datapoint) after removing eventual outlier points (caused by dust or array imperfections). […] The p values were calculated after outlier elimination based on the absolute value of the regularized t-statistics, which uses a Bayesian framework to derive the algorithm, using internal replicated controls to assess the minimum technical variability of the process. Correlation between gene expression changes induced by different treatments was analysed by calculating the Pearson correlation coefficient r using the Log2(Treatment/Veh) values for all genes expressed above background level (n). […]
# spinal cord of EAE mice = assay: Microarray, spinal cord of EAE mice, effector phase (E), 24 h after treatment; ORY-2001 0.5 mg/kg, FTY720 1.0 mg/kg; format: in vivo, mouse
# Procedure: as §1, with “S3. Microarray studies were performed by using DNA microarray oligo probes designed with Tethys, Oryzon’s proprietary software which is based on the in silico thermodynamic simulation of hybridization. Agilent probes were added for genes which yielded no probes, complying with Tethys criteria. Control probes were used to assess detection limits and range, to verify spatial homogeneity, and to determine experimental within-array variation. Microarray slides were synthesized by Agilent. Total RNA (0.5 µg) amplification and labeling with Cy3 or Cy5 was carried out using a modified Eberwine mRNA amplification procedure employing the MessageAmp™ II aRNA Amplification kit from Ambion (ThermoFisher Scientific, Oxford, UK).” for “S3.”
# as §2
# [1] = tested on: C57BL/6 mice with chronic EAE; assay: Chronic EAE induced by MOG35–55, clinical score; format: in vivo, mouse; details: for mean clinical score: EAE effector phase, p.o. 5 days from day 12, FTY720 1.0 mg/kg
# Procedure: Mice also received i.p. injections of 200 ng of pertussis toxin on days 0 and 2 [32]. Immunized mice were randomly distributed in different groups. […] MPTP is a prodrug which is converted to the neurotoxin 1-methyl-4-phenylpyridinium (MPP+) by MAO-B in vivo.
# Compounds were administered once daily for five consecutive days in two cycles, from day 12 to 16 and from day 19 to 23 post-immunization. […] HPβCD was included to facilitate dissolution. Mice were scored daily for signs of EAE according to the following clinical scoring system: 0, no clinical signs; 0.5, partial loss of tail tonicity; 1, complete loss of tail tonicity; 2, flaccid tail and abnormal gait; 3, complete hind leg paralysis; 4, hind leg paralysis with hind body paresis; 5, hind and foreleg paralysis; and 6, death. Intermediate phenotypes were scored as a half integer. Animals were sacrificed when they kept a score of 5 more than 24 h. Investigators which administered the compounds and scored the animals were blinded to the treatments.
# recombinant HDAC2 = biological target: T1, recombinant HDAC2 (Homo sapiens, UniProt Q92769); assay: HDAC2 fluorimetric biochemical assay
# T1 construct: purchased BPS Bioscience 50002
# Procedure: HDAC2 activity was determined using a fluorimetric assay at BPS Bioscience (San Diego, CA, USA). Compounds were dissolved in DMSO (Sigma), and serial dilutions were further diluted in HDAC assay buffer (BPS). These working solutions were incubated in duplicate at room temperature for 3 h in a mixture containing HDAC assay buffer, BSA (Fisher Scientific), and recombinant HDAC2 (BPS). The enzymatic reactions were initiated by the addition of a fluorogenic, acetylated peptide substrate (BPS) and proceeded for 30 min at 37 °C. Then, HDAC assay developer (BPS) was added, and after further incubation at room temperature, fluorescence intensity was measured at an excitation of 360 nm and an emission of 460 nm using a Tecan Infinite M1000 microplate reader. Trichostatin A (TSA, Selleckchem, Houston, TX, USA) was used as a reference inhibitor.
# For the biochemical assays, the fluorescence signal relative to the background (assay mixture in the absence of the enzyme) was subtracted from each fluorescent intensity data. Activity in the presence of compound was expressed as a percentage of fluorescence intensity in the absence of the compound.
# [2] = EAE experiment 2, 0.5 or 1 mg/kg ORY-2001
# T1 sequence (Q92769 whole entry): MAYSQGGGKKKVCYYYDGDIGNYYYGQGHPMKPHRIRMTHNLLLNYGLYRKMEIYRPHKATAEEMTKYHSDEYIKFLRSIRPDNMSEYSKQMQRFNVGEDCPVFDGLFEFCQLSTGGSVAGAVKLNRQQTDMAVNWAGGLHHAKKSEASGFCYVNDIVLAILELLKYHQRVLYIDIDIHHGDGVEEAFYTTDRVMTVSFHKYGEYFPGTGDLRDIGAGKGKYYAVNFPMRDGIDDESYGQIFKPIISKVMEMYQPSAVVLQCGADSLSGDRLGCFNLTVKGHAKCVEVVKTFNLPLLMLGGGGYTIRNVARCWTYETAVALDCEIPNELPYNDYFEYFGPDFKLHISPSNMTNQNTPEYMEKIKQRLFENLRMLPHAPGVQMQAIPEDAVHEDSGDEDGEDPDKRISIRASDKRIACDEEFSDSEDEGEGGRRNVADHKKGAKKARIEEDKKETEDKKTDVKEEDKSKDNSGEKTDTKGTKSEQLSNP
SMILES,expression of Cox1 (brain of EAE mice),"expression of pituitary markers Gh, Prl, Pomc, Cga (brain of EAE mice)",expression of Ogn (spinal cord of EAE mice),mean clinical score ([1]; ORY-2001 0.5 mg/kg),impact on recombinant HDAC2 activity (recombinant HDAC2),"expression of Aif1, Bst2, Rgs4 and Mtap9 (spinal cord of EAE mice)","expression of Ptpn11, Kif1b and Pik3r1 (spinal cord of EAE mice)","animals with mild clinical signs (clinical score ≤ 2) ([1]; EAE experiment 1 (severe), p.o. ORY-2001 1 mg/kg)","effect on disease severity ([1]; EAE experiment 1 (severe), p.o. ORY-2001 1 mg/kg, ORY-LSD1 180 µg/kg)","animals with severe manifestations/signs of the disease ([1]; EAE experiment 1 (severe), p.o. ORY-2001 1 mg/kg, ORY-LSD1 180 µg/kg (maximum clinical score ≥ 4.0))","mean maximum clinical score ([1]; EAE experiment 1 (severe), p.o. ORY-2001 1 mg/kg, ORY-LSD1 180 µg/kg, days 12-16 and 19-23)",mice with no or only mild clinical signs at the end of the study ([1]; EAE experiment 2),"effect on clinical course / disease severity ([1]; EAE experiment 2 (mild), p.o. ORY-2001 0.05, 0.5, 1 mg/kg, ORY-LSD1 90, 180 µg/kg, rasagiline 3 mg/kg)","mice with mild clinical signs [1, 2]","mice with no clinical signs [1, 2]","duration of protection after short term treatment ([1]; EAE experiment 2, 40 days after disease onset)","animals with severe signs (maximum clinical score 3.5–6) ([1]; EAE experiment 2, highest dose tested)","relapse ([1]; EAE experiment 2, lowest dose 0.05 mg/kg)","clinical signs at the peak of the disease ([1]; EAE sub-chronic phase, to day 26, p.o. ORY-2001 0.5 mg/kg, ORY-LSD1 180 µg/kg)","severity of symptoms in treated mice ([1]; EAE sub-chronic phase, ORY-2001 0.5 mg/kg)"
"CCCCCCCCc1ccc(CCC(N)(CO)CO)cc1 [FTY720, Fingolimod, reference compound]",induction of Cox1,"potently downregulated the pituitary markers Gh, Prl, Pomc, and Cga",downregulated by FTY720,reduced the mean clinical score,did not inhibit HDAC; also recorded: unable to confirm the previous studies reporting that FTY720 or FTY720-P had any significant impact,–,–,–,–,–,–,–,–,–,–,–,–,–,–,–
Nc1nnc(CN[C@@H]2C[C@H]2c2ccc(OCc3ccccc3)cc2)o1 [ORY-2001],–,"potently downregulated the pituitary markers Gh, Prl, Pomc, and Cga",preserved the expression of Ogn,reduced the mean clinical score,–,downregulated Aif1,prevented the induction of Ptpn11,60%,significantly reduced disease severity,10%,1.8,70–80%,significantly reduced disease severity,50%,10%,long-lasting protective effect,none,suffered a relapse during the last week of follow-up,reduced the clinical signs,displayed only mild symptoms
